# Measurements as given in patent publication US6608086B2, “Dihydropyridines and new uses thereof” (Synaptic Pharmaceutical Corporation, priority 1993, dated 2003).
# Like-named read-outs stand apart in the source and are kept apart here.
# How the values were obtained:
# α2A receptor = molecular target: T1, α2A receptor (Homo sapiens, UniProt P08913); assay: Competition binding, [3H]rauwolscine, human α2A receptor
# T1 construct: host or cells: LM(tk-) cells, line L-α2A
# T1 sequence (P08913 1-465): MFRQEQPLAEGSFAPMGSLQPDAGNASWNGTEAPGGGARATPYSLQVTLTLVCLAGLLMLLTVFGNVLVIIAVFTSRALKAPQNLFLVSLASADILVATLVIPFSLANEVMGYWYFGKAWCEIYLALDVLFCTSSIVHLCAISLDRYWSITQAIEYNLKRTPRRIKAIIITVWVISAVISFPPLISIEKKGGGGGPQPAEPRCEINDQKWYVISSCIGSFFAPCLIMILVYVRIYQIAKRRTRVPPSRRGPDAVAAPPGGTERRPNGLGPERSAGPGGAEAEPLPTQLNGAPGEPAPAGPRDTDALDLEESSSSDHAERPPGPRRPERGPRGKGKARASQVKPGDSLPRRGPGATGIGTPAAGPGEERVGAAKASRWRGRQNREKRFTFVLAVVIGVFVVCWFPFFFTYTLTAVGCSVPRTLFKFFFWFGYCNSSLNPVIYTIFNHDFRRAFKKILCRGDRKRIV
# In short: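 Lysates of LM(tk−) cells stably expressing each α2 subtype were suspended in 25 mM glycylglycine buffer (pH 7.6 at room temperature). Equilibrium competition binding used 0.5 nM [3H]rauwolscine, with nonspecific binding defined by 10 μM phentolamine; bound radioligand was separated by GF/B filtration.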
# [1] = molecular target: T2, α1A Human Adrenergic Receptor (Homo sapiens, UniProt P25100); assay: Radioligand binding, [3H]prazosin, cloned human α1A adrenergic receptor
# T2 construct: The entire coding region of α1A (1719 bp); expressed in transfected cells
# T2 sequence (P25100 1-572): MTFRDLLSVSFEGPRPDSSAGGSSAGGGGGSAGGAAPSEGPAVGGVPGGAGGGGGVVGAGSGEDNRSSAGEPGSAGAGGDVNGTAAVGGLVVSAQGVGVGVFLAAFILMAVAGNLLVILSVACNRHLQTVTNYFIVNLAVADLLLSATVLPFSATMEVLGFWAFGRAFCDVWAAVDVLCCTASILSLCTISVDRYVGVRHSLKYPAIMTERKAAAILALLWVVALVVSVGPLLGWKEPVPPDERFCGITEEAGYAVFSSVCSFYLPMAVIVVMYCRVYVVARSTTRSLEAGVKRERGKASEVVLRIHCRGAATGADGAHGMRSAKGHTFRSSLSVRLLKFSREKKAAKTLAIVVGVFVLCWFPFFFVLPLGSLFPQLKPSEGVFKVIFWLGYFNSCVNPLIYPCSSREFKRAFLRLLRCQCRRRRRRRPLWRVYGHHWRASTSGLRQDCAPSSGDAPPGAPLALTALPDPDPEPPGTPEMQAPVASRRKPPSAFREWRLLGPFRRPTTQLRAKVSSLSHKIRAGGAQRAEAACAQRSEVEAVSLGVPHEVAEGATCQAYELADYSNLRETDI
# In short: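 Filter-bound radioactivity measured [3H]prazosin (0.5 nM) binding to membranes of LM(tk−) cells expressing the human α1A receptor after 20 min at 37° C. Phentolamine at 10 μM set nonspecific binding.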
# [2] = molecular target: T3, α1B Human Adrenergic Receptor (Homo sapiens, UniProt P35368); assay: Radioligand binding, [3H]prazosin, cloned human α1B adrenergic receptor; settings: cloned human receptor, LM(tk-) cell membranes, mean
# T3 construct: The entire coding region of α1B (1563 bp); expressed in transfected cells
# T3 sequence (P35368 1-520): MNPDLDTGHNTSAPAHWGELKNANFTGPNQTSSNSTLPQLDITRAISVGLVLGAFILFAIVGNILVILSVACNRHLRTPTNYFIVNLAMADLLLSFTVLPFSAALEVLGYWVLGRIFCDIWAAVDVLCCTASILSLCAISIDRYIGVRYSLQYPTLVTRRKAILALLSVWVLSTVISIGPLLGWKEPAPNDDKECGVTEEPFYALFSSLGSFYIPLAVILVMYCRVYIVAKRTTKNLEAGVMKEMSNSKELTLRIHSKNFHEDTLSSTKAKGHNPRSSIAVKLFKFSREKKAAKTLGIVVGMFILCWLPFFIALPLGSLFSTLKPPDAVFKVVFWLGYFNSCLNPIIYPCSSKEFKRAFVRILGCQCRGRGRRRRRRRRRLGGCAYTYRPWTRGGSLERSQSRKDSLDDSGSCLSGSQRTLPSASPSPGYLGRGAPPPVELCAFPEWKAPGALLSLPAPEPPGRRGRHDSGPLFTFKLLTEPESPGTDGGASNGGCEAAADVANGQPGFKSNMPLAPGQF
# In short: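 [3H]prazosin (0.5 nM) binding was run for 20 min at 37° C in pH 7.5 Tris/MgCl2/ascorbate buffer on membranes of LM(tk−) cells stably expressing the cloned receptor. Filtration through GF/B ended the reaction; 10 μM phentolamine gave nonspecific binding.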
# [3] = [3H]rauwolscine, human receptor, LM(tk-) cell lysates, mean, read-out: PKi alpha-2 2a (converted)
# [4] = [3H]prazosin, cloned human receptor, LM(tk-) cell membranes, mean, read-out: PKi alpha-1 1a (converted)
# [5] = read-out: PKi alpha-1 1b (converted)
SMILES,Ki (α2A receptor; [3]) [nM],"Ki [1, 4] [nM]","Ki [2, 5] [nM]",Ki (α2A receptor) [nM],Ki ([1]; PKi alpha-1 1a) [nM],also measured
"CCNC(=O)C1=C(CC)NC(COCCN)=C(C(=O)NCCCN2CCC(C(=O)OCC)(c3ccccc3)CC2)C1c1ccc([N+](=O)[O-])cc1 (stereo not drawn) [Example 192, 2-[(2-Aminoethoxy)methyl]-3-{N-[3-(4-ethoxycarbonyl-4-phenyl-piperidin-1-yl)propyl]}carboxamido-1,4-dihydro-6-ethyl-5-(N-ethyl)carboxamido-4-(4-nitrophenyl)pyridine]",3720,3020,1860,–,–,–
"CCOC(=O)C1(c2ccccc2)CCN(CCCNC(=O)C2=C(COCCN)NC(CC)=C(C(N)=O)C2c2ccc([N+](=O)[O-])cc2)CC1 (stereo not drawn) [Example 193, 2-[(2-Aminoethoxy)methyl]-5-carboxamido-3-{N-[3-(4-ethoxycarbonyl-4-phenylpiperidin-1-yl)propyl]}carboxamido-1,4-dihydro-6-ethyl-4-(4-nitrophenyl)pyridine]",1020,2880,1740,–,–,–
"CCOC(=O)C1(c2ccccc2)CCN(CCCNC(=O)C2=C(COCCN)NC(CC)=C(C(=O)NC)C2c2ccc([N+](=O)[O-])cc2)CC1 (stereo not drawn) [Example 194, 2-[(2-Aminoethoxy)methyl]-3-{N-[3-(4-ethoxycarbonyl-4-phenylpiperidin-1-yl)propyl]}carboxamido-1,4-dihydro-6-ethyl-5-(N-methyl) carboxamido-4-(4-nitrophenyl) pyridine]",3160,4900,2690,–,–,–
"CCOC(=O)C1(c2ccccc2)CCN(CCCNC(=O)C2=C(COCCN)NC(CC)=C(C(=O)O)C2c2ccc([N+](=O)[O-])cc2)CC1 (stereo not drawn) [Example 196, 2-[(2-Aminoethoxy)methyl]-3-{N-[3-(4-ethoxycarbonyl-4-phenylpiperidin-1-yl)propyl]}carboxamido-1,4-dihydro-6-ethyl-4-(4-nitrophenyl)pyridine-5-carboxylic Acid]",8320,6760,3630,–,–,–
"CCOC(=O)C1(c2ccccc2)CCN(CCCNC(=O)C2=C(COCCN)NC(CC)=C(C(=O)OC)C2c2ccc([N+](=O)[O-])cc2)CC1 (stereo not drawn) [Example 197, 2-[(2-Aminoethoxy)methyl]-3-{N-[3-(4-ethoxycarbonyl-4-phenylpiperidin-1-yl)propyl]}carboxamido-1,4-dihydro-6-ethyl-5-methoxycarbonyl-4-(4-nitrophenyl) pyridine]",–,–,148,1480,251,–
CCC1=C(C(N)=O)C(c2ccc([N+](=O)[O-])cc2)C(C(=O)NCCCN2CCC(C(=O)OC)(c3ccccc3)CC2)=C(CC)N1 (stereo not drawn) [Example 200],–,–,2000,5500,3310,–
"CC1=C(C(N)=O)C(c2ccc([N+](=O)[O-])cc2)C(C(=O)NCCCN2CCC(C(=O)OCCC#N)(c3ccccc3)CC2)=CN1C (stereo not drawn) [Example 209, 5-Carboxamido-3-{N-[3-(4-(2-cyanoethoxycarbonyl)-4-phenylpiperidin-1-yl)propyl]}carboxamido-1,4-dihydro-1,6-dimethyl-4-(4-nitrophenyl) pyridine]",–,–,–,–,–,"PKi alpha-2 2a (α2A receptor; [3H]rauwolscine, human receptor, LM(tk-) cell lysates, mean): 5.78; PKi alpha-1 1a ([1]; [3H]prazosin, cloned human receptor, LM(tk-) cell membranes, mean): 5.17; PKi alpha-1 1b [2]: 5.44"
"CC1=C(C(N)=O)C(c2ccc([N+](=O)[O-])cc2)C(C(=O)NCCCN2CCC(C(=O)O)(c3ccccc3)CC2)=C(C)N1 (stereo not drawn) [Example 210, 5-Carboxamido-3-{N-[3-(4-carboxy-4-phenylpiperidin-1-yl)propyl]}carboxamido-1,4-dihydro-2,6-dimethyl-4-(4-nitrophenyl)pyridine]",–,–,44700,11000,72400,–
"CCC1=C(C(=O)NC)C(c2ccc([N+](=O)[O-])cc2)C(C(=O)NCCCN2CCC(c3ccccc3)(c3ccccc3)CC2)=C(COCCN)N1 (stereo not drawn) [Example 225, 2-((2-Aminoethyl)oxy)methyl-6-ethyl-1,4-dihydro-5-N-methylcarboxamido-4-(4-nitro)phenyl-3-(3-(N-(4,4-diphenylpiperidin-1-yl)propyl))carboxamidopyridine]",–,–,501,2040,1620,–
"CCC1=C(C(=O)NC)C(c2ccc([N+](=O)[O-])cc2)C(C(=O)NCCCN2CCC(C(=O)OC)(c3ccccc3)CC2)=C(COCCN)N1 (stereo not drawn) [Example 229, 2-((2-Aminoethyl)oxy)methyl-6-ethyl-1,4-dihydro-3-(N-(3-(4-methoxycarbonyl-4-phenylpiperidin-1-yl)propyl))carbo xamido-5-N-methylcarboxamido-4-(4-nitro)phenylpyridine]",3020,4170,1380,–,–,–
"CCNC(=O)C1=C(CC)NC(COCCN)=C(C(=O)NCCCN2CCC(C(=O)OC)(c3ccccc3)CC2)C1c1ccc([N+](=O)[O-])cc1 (stereo not drawn) [Example 233, 2-((2-Aminoethyl)oxy)methyl-6-ethyl-5-N-ethylcarboxamido-1,4-dihydro-3-(N-(3-(4-methoxycarbonyl-4-phenylpiperidin-1-yl)propyl))carboxamido-4-(4-nitro)phenylpyridine]",–,–,1620,4790,4070,–
"CCC1=C(C(N)=O)C(c2ccc([N+](=O)[O-])cc2)C(C(=O)NCCCN2CCC(C(=O)OC)(c3ccccc3)CC2)=C(COCCN)N1 (stereo not drawn) [Example 234, 2-((2-Aminoethyl)oxy)methyl-5-carboxamido-6-ethyl-1,4-dihydro-3-(N-(3-(4-methoxycarbonyl-4-phenylpiperidin-1-yl)propyl)) carboxamido-4-(4-nitro)phenylpyridine]",1230,2750,1290,–,–,–
"CCC1=C(C(=O)OC)C(c2ccc([N+](=O)[O-])cc2)C(C(=O)NCCCN2CCC(C(=O)OC)(c3ccccc3)CC2)=C(COCCN)N1 (stereo not drawn) [Example 235, 2-((2-Aminoethyl)oxy)methyl-6-ethyl-1,4-dihydro-5-methoxycarbonyl-3-(N-(3-(4-methoxycarbonyl-4-phenylpiperidin-1-yl)propyl))carboxamido-4-(4-nitro)phenylpyridine]",–,–,219,2400,282,–
"CC(=O)C1=C(C)NC(COCCN)=C(C(=O)NCCCN2CCC(c3ccccc3)(c3ccccc3)CC2)C1c1ccc([N+](=O)[O-])cc1 (stereo not drawn) [Example 237, 5-Acetyl-2-((2-aminoethyl)oxy)methyl-1,4-dihydro-6-methyl-4-(4-nitro)phenyl 3-(N-(3-(4,4-diphenylpiperidin-1-yl)propyl)) carboxamidopyridine]",794,–,–,–,–,"Ki ([1]; PKi alpha-1 1a, [3H]prazosin, cloned human receptor, LM(tk-) cell membranes, mean): 380 nM; Ki ([2]; PKi alpha-1 1b): 200 nM"
